Patent US8871767B2, “2-arylimidazo[1,2-B]pyridazine, 2-phenylimidazo[1,2-A]pyridine, and 2-phenylimidazo[1,2-A]pyrazine derivatives” (Hengrui (USA) Ltd., priority 2010, dated 2014)
Like-named read-outs stand apart in the source and are kept apart here.

Assays:
[1] = system: Hedgehog pathway activation (GLi-luciferase reporter) in Shh Light II reporter cells; experiment: Hedgehog pathway activation on Shh Light II reporter cells measured by luciferase activity; type: cell-based; conditions: Mus musculus, Shh Light II
Procedure, shortened: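 Shh Light II reporter cells carrying a hedgehog-responsive GLi-luciferase reporter were stimulated either with 500 nM SAG, a direct Smoothened agonist, or with conditioned media containing human Sonic Hedgehog (hShh). Test compounds were evaluated for blocking this pathway activation, quantified by luciferase activity. Cell viability was monitored in parallel with the Celltiter-Blue® assay.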

[2] = system: Hedgehog pathway activation on 10T1/2/Smo#3 cells (C3H10T1/2 cells transfected with human Smoothened receptor); experiment: Hedgehog pathway activation on 10T1/2/Smo#3 cells measured by ALP activity; type: cell-based; conditions: Mus musculus, C3H 10T1/2, 10T1/2/Smo#3 cells
Procedure, shortened: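 Inhibition of alkaline phosphatase induction, read fluorometrically from 4-methylumbelliferyl phosphate conversion, gave IC50 values; CellTiter-Blue tracked viability in parallel. Cells were the human Smo-transfected 10T1/2/Smo#3 pool, stimulated by 10-20% hShh conditioned medium or the Smo agonist SAG (500 nM).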

[3] = hShh activation, read-out: Shh (IC50, inhibition of Hedgehog pathway activation)
[4] = measured by ALP activity, read-out: ALP (IC50, inhibition of Hedgehog pathway activation)
[5] = SAG activation (500 nM SAG), read-out: Shh Light II luciferase activity (SAG activation)
[6] = hShh activation, read-out: Shh Light II luciferase activity (hShh activation)
[7] = hShh activation, ALP activity, read-out: 10T1/2/Smo#3 ALP activity (hShh Activation)

| SMILES | IC50 [1, 3] [nM] | IC50 [2, 4] [nM] | IC50 [1, 5] [nM] | IC50 [1, 6] [nM] | IC50 [2, 7] [nM] |
| --- | --- | --- | --- | --- | --- |
| O=C(Nc1cc(-c2cn3nc(-c4cccnc4C(F)(F)F)ccc3n2)ccc1F)N1CC(F)(F)C1 [Example 684, 3,3-difluoro-N-(2-fluoro-5-(6-(2-(trifluoromethyl)pyridin-3-yl)imidazo[1,2-b]pyridazin-2-yl)phenyl)azetidine-1-carboxamide] | 95 | 356 |  |  |  |
| O=C(Nc1cc(-c2cn3nc(-c4cccnc4C(F)(F)F)ccc3n2)ccc1Cl)N1CCCC1 [Example 656, N-(2-chloro-5-(6-(2-(trifluoromethyl)pyridin-3-yl)imidazo[1,2-b]pyridazin-2-yl)phenyl)pyrrolidine-1-carboxamide] | 38 | 117 |  |  |  |
| Cc1ccc(-c2cn3nc(-c4cccnc4C(F)(F)F)ccc3n2)cc1NC(=O)NC1CC1 [Example 651, 1-cyclopropyl-3-(2-methyl-5-(6-(2-(trifluoromethyl)pyridin-3-yl)imidazo[1,2-b]pyridazin-2-yl)phenyl)urea] | 139 | 127 |  |  |  |
| COc1ccc2nc(-c3ccc(C(F)(F)F)c(NC(=O)C(C)(C)C)c3)cn2n1 [Example 125, N-(5-(6-methoxyimidazo[1,2-b]pyridazin-2-yl)-2-(trifluoromethyl)phenyl)pivalamide] | 435 | 1250 |  |  |  |
| Cc1ccc(-c2nc3ccc(Cl)nn3c2C)cc1NC(=O)C(C)(C)C [Example 311, N-(5-(6-chloro-3-methylimidazo[1,2-b]pyridazin-2-yl)-2-methylphenyl)pivalamide] | 2080 | 2420 |  |  |  |
| COc1cccc(-c2ccc3nc(-c4ccc(C(F)(F)F)c(NC(=O)C(C)(C)C)c4)cn3n2)c1F [Example 206, N-(5-(6-(2-fluoro-3-methoxyphenyl)imidazo[1,2-b]pyridazin-2-yl)-2-(trifluoromethyl)phenyl)pivalamide] | 341 | 246 |  |  |  |
| CCOC(=O)CCCCOc1ccc(C(F)(F)F)c(-c2ccc3nc(-c4ccc(C)c(NC(=O)C(C)(C)C)c4)cn3n2)c1 [Example 433, ethyl 5-(3-(2-(4-methyl-3-pivalamidophenyl)imidazo[1,2-b]pyridazin-6-yl)-4-(trifluoromethyl)phenoxy)pentanoate] | 193 | 736 |  |  |  |
| CC(C)(C)C(=O)Nc1cc(-c2cn3nc(-c4cccnc4)ccc3n2)ccc1C(F)(F)F [Example 153, N-(5-(6-(pyridin-3-yl)imidazo[1,2-b]pyridazin-2-yl)-2-(trifluoromethyl)phenyl)pivalamide] | 264 | 410 | 300 to 3000 | < 300 | 300 to 3000 |
| CNS(=O)(=O)c1cc(-c2cn3nc(-c4cccnc4C(F)(F)F)ccc3n2)ccc1Cl [Example 698, 2-chloro-N-methyl-5-(6-(2-(trifluoromethyl)pyridin-3-yl)imidazo[1,2-b]pyridazin-2-yl)benzenesulfonamide] | 4250 | > 10000 |  |  |  |
| COCCN(CCOC)c1ccc2nc(-c3ccc(C(F)(F)F)c(NC(=O)C(C)(C)C)c3)cn2n1 [Example 380, N-(5-(6-(bis(2-methoxyethyl)amino)imidazo[1,2-b]pyridazin-2-yl)-2-(trifluoromethyl)phenyl)pivalamide] | 273 | 383 |  |  |  |
| CC(C)(C)C(=O)Nc1cc(-c2cn3nc(-c4cccnc4C(F)(F)F)ccc3n2)ccc1F [Example 658, N-(2-fluoro-5-(6-(2-(trifluoromethyl)pyridin-3-yl)imidazo[1,2-b]pyridazin-2-yl)phenyl)pivalamide] | 27 | 85 |  |  |  |
| CNC1CCN(c2ccc3nc(-c4ccc(C(F)(F)F)c(NC(=O)C(C)(C)C)c4)cn3n2)C1 (centres unmarked) [Example 349, N-(5-(6-(3-(methylamino)pyrrolidin-1-yl)imidazo[1,2-b]pyridazin-2-yl)-2-(trifluoromethyl)phenyl)pivalamide] | 45 | 9 |  |  |  |
| CC(C)(C)C(=O)Nc1cc(-c2cn3nc(-c4cccnc4F)ccc3n2)ccc1C(F)(F)F [Example 176, N-(5-(6-(2-fluoropyridin-3-yl)imidazo[1,2-b]pyridazin-2-yl)-2-(trifluoromethyl)phenyl)pivalamide] | 79 | 97 |  |  |  |
| COc1ccc2nc(-c3ccc(C)c(NC(=O)C(C)(C)C)c3)cn2n1 [Example 4, N-(5-(6-methoxyimidazo[1,2-b]pyridazin-2-yl)-2-methylphenyl)pivalamide] |  |  | 300 to 3000 | 3000 to 30000 | 300 to 3000 |
| CC(C)(C)C(=O)Nc1cc(-c2cn3nc(-c4cc(F)ccc4C(F)(F)F)ccc3n2)ccc1C(F)(F)F [Example 291, N-(5-(6-(5-fluoro-2-(trifluoromethyl)phenyl)imidazo[1,2-b]pyridazin-2-yl)-2-(trifluoromethyl)phenyl)pivalamide] | 289 | 325 |  |  |  |
| CCc1ccc(-c2cn3nc(-c4cccnc4C(F)(F)F)ccc3n2)cc1NC(=O)C(C)(C)CC [Example 689, N-(2-ethyl-5-(6-(2-(trifluoromethyl)pyridin-3-yl)imidazo[1,2-b]pyridazin-2-yl)phenyl)-2,2-dimethylbutanamide] | 64 | 188 |  |  |  |
| COc1ccc2nc(-c3ccc(C)c(NC(=O)C(C)(C)C)c3)c(Cl)n2n1 [Example 109, N-(5-(3-chloro-6-methoxyimidazo[1,2-b]pyridazin-2-yl)-2-methylphenyl)pivalamide] | 2650 | 7000 | 3000 to 30000 | 300 to 3000 | 3000 to 30000 |
| COc1ccc(-c2ccc3nc(-c4ccc(C(F)(F)F)c(NC(=O)C(C)(C)C)c4)cn3n2)cn1 [Example 170, N-(5-(6-(6-methoxypyridin-3-yl)imidazo[1,2-b]pyridazin-2-yl)-2-(trifluoromethyl)phenyl)pivalamide] | 562 | 681 |  |  |  |
| NS(=O)(=O)c1cc(-c2cn3nc(-c4cccnc4C(F)(F)F)ccc3n2)ccc1Cl [Example 697, 2-chloro-5-(6-(2-(trifluoromethyl)pyridin-3-yl)imidazo[1,2-b]pyridazin-2-yl)benzenesulfonamide] | > 10000 | > 10000 |  |  |  |
| CCN(CC)S(=O)(=O)c1cc(-c2cn3nc(-c4cccnc4C(F)(F)F)ccc3n2)ccc1Cl [Example 703, 2-chloro-N,N-diethyl-5-(6-(2-(trifluoromethyl)pyridin-3-yl)imidazo[1,2-b]pyridazin-2-yl)benzenesulfonamide] | 1600 | > 10000 |  |  |  |
| Cc1c(-c2ccccc2F)nn2cc(-c3ccc(C(F)(F)F)c(NC(=O)C(C)(C)C)c3)nc2c1C [Example 200, N-(5-(6-(2-fluorophenyl)-7,8-dimethylimidazo[1,2-b]pyridazin-2-yl)-2-(trifluoromethyl)phenyl)pivalamide] | 281 | 284 |  |  |  |
| CC(O)COc1ccc2nc(-c3ccc(C(F)(F)F)c(NC(=O)C(C)(C)C)c3)cn2n1 (centres unmarked) [Example 376, N-(5-(6-(2-hydroxypropoxy)imidazo[1,2-b]pyridazin-2-yl)-2-(trifluoromethyl)phenyl)pivalamide] | 616 | 874 |  |  |  |
| CC(C)(C)C(=O)Nc1cc(-c2cn3nc(C4CCCC4)ccc3n2)ccc1C(F)(F)F [Example 133, N-(5-(6-cyclopentylimidazo[1,2-b]pyridazin-2-yl)-2-(trifluoromethyl)phenyl)pivalamide] | 487 | 849 |  |  |  |
